# Read-outs that look alike come from different tables or passages of the source.
# Legend:
# [1] = test system: Staphylococcus aureus ATCC 25923; assay: Broth microdilution, S. aureus ATCC 25923; assay type: cell-based; conditions: Sa 25923
# Method: (§1) The antibacterial activity of the obtained thiosemicarbazides and hydrazide–hydrazones was determined by evaluating their ability to inhibit microbial growth in vitro using the broth microdilution method, according to the guidelines of the European Committee on Antimicrobial Susceptibility Testing (EUCAST). The method involved the preparation of microbial suspensions with a standardized density of 0.5 on the McFarland scale (equivalent to 1.5 × 10^8 colony-forming units/mL for bacteria and […] for fungi). A solution of the test substances was then prepared (initial concentration 1000 µg/mL, diluted in sterile Mueller-Hinton broth for bacteria or Mueller-Hinton with 2% glucose for fungi). The test was carried out in 96-well polystyrene flat-bottom plates (Medlab, Poland) with 100 µL of appropriate sterile microbiological medium in each well. The first wells were filled with 200 µL of the test substance, diluted to the initial concentration, and then double-decreasing dilutions were made under aseptic conditions using an automatic pipette. The final step was the addition of a 10-fold diluted microbial suspension of 2 µL. At the same time, the following controls were included: (a) medium control (100 µL of sterile medium without microorganisms added), (b) microbial viability control, (c) test substance control (dilutions without added micro-organisms), (d) positive control of the drug used in the clinic. The plates thus prepared were incubated for 18 ± 2 h at 35 ± 2 °C under conditions optimal for the growth of the test microorganisms. After incubation, the spectrophotometric absorbance at 570 nm in each well of the plate was read. The aim of this part of the study was to determine two parameters: the minimum inhibitory concentration (MIC) and the minimum bactericidal or fungicidal concentration (MBC/MFC) of the test compound. […] The MBC value was determined by adding 5 µL of the contents of each well of the plate to solid sterile MHA or MHA + 2%glc medium for bacteria and fungi, respectively. The area on the plate where 99.9% inhibition of microbial growth was observed indicated the lethal concentration. In addition, the quotient MBC(MFC)/MIC could be determined to assess the nature of the activity of the test substance. If MBC(MFC)/MIC was <4, the test substance was bactericidal/fungicidal, whereas if MBC(MFC)/MIC was ≥4, it was bacteriostatic/fungistatic. Amoxicillin (Glentham Life Sciences, USA) and nystatin (Glentham Life Sciences, USA) were used as the controls for this assay.
# (§2) The test was performed either on bacteria, comprising: Gram-positive (Staphylococcus aureus ATCC 25923, Staphylococcus aureus ATCC 6538, Staphylococcus aureus ATCC 43300 methicillin-resistant MRSA, Staphylococcus epidermidis ATCC 12228, Micrococcus luteus ATCC 10240, Bacillus subtilis ATCC 6633, Bacillus cereus ATCC 10876) and Gram-negative (Escherichia coli ATCC 25922, Pseudomonas aeruginosa ATCC 27853, Proteus mirabilis ATCC 12453, Klebsiella pneumoniae ATCC 13883) or yeast (Candida parapsilosis ATCC 22019, Candida glabrata ATCC 90030, Candida krusei ATCC 14243, Candida glabrata ATCC 15126, Candida tropicalis ATCC 1369, Candida auris CDC B11903, Candida lusitaniae ATCC 3449) reference strains from the American Type Culture Collection (ATCC) or the Centers for Disease Control and Prevention (CDC).
# [2] = test system: Staphylococcus aureus ATCC 6538; assay: Broth microdilution, S. aureus ATCC 6538; assay type: cell-based; conditions: Sa 6538
# Method: as §1, §2
# [3] = test system: Staphylococcus aureus ATCC 43300 methicillin-resistant MRSA; assay: Broth microdilution, S. aureus ATCC 43300 MRSA; assay type: cell-based; conditions: Sa 43300 MRSA
# Method: as §1, §2
# [4] = test system: Staphylococcus epidermidis ATCC 12228; assay: Broth microdilution, S. epidermidis ATCC 12228; assay type: cell-based; conditions: Se 12228; for MBC/MIC Ratio: <4 bactericidal, ≥4 bacteriostatic
# Method: as §1, §2
# [5] = test system: Micrococcus luteus ATCC 10240; assay: Broth microdilution, M. luteus ATCC 10240; assay type: cell-based; conditions: Ml 10240; for MBC/MIC Ratio: <4 bactericidal, ≥4 bacteriostatic
# Method: as §1, §2
# [6] = test system: Bacillus subtilis ATCC 6633; assay: Broth microdilution, B. subtilis ATCC 6633; assay type: cell-based; conditions: Bs 6633; for MBC/MIC Ratio: <4 bactericidal, ≥4 bacteriostatic
# Method: as §1, §2
# [7] = test system: Bacillus cereus ATCC 10876; assay: Broth microdilution, B. cereus ATCC 10876; assay type: cell-based; conditions: Bc 10876; for MBC/MIC Ratio: <4 bactericidal, ≥4 bacteriostatic
# Method: as §1, §2
# [8] = test system: Candida parapsilosis ATCC 22019; assay: Broth microdilution, C. parapsilosis ATCC 22019; assay type: cell-based; conditions: Cp 22019
# Method: as §1, §2
# [9] = test system: Candida glabrata ATCC 90030; assay: Broth microdilution, C. glabrata ATCC 90030; assay type: cell-based; conditions: Cg 90030
# Method: as §1, §2
# [10] = test system: Candida krusei ATCC 14243; assay: Broth microdilution, C. krusei ATCC 14243; assay type: cell-based; conditions: Ck 14243
# Method: as §1, §2
# [11] = test system: Candida glabrata ATCC 15126; assay: Broth microdilution, C. glabrata ATCC 15126; assay type: cell-based; conditions: Cg 15126
# Method: as §1, §2
# [12] = test system: Candida tropicalis ATCC 1369; assay: Broth microdilution, C. tropicalis ATCC 1369; assay type: cell-based; conditions: Ct 1369
# Method: as §1, §2
# Candida auris CDC B11903 = assay: Broth microdilution, C. auris CDC B11903; assay type: cell-based; conditions: Ca B11903
# Method: as §1, §2
# [13] = test system: Candida lusitaniae ATCC 3449; assay: Broth microdilution, C. lusitaniae ATCC 3449; assay type: cell-based; conditions: Cl 3449
# Method: as §1, §2
# [14] = Staphylococcus aureus, ATCC25923, read-out: MBC
# [15] = Staphylococcus aureus, ATCC25923, read-out: MIC
# [16] = Staphylococcus aureus, ATCC6538, read-out: MBC
# [17] = Staphylococcus aureus, ATCC6538, read-out: MIC
# [18] = Staphylococcus aureus, read-out: MBC
# [19] = Staphylococcus aureus, read-out: MIC
# [20] = Staphylococcus epidermidis, ATCC12228, read-out: MBC
# [21] = Staphylococcus epidermidis, ATCC12228, read-out: MIC
# [22] = Micrococcus luteus, ATCC10240, read-out: MBC
# [23] = Micrococcus luteus, ATCC10240, read-out: MIC
# [24] = Bacillus subtilis, ATCC6633, read-out: MBC
# [25] = Bacillus subtilis, ATCC6633, read-out: MIC
# [26] = Bacillus cereus, ATCC10876, read-out: MBC
# [27] = Bacillus cereus, ATCC10876, read-out: MIC
# [28] = Lodderomyces parapsilosis, ATCC22019, read-out: MIC
# [29] = Nakaseomyces glabratus, ATCC90030, read-out: MIC
# [30] = Pichia kudriavzevii, ATCC14243, read-out: MIC
# [31] = Nakaseomyces glabratus, ATCC15126, read-out: MIC
# [32] = Candida tropicalis, ATCC1369, read-out: MIC
# [33] = Candidozyma auris, CDCB11903, read-out: MIC
# [34] = Clavispora lusitaniae, ATCC3449, read-out: MIC
structure (smiles),measurement,setting,value
COc1ccc(NC(=S)NNC(=O)c2nc([N+](=O)[O-])cn2C)cc1 [Compound 11],MBC,[1],>1000 µg/mL
same,MIC,[1],500 µg/mL
same,MBC,[2],>1000 µg/mL
same,MIC,[2],1000 µg/mL
same,MBC,[3],>1000 µg/mL
same,MIC,[3],1000 µg/mL
same,MBC,[4],>1000 µg/mL
same,MIC,[4],500 µg/mL
same,MBC,[5],500 µg/mL
same,MIC,[5],250 µg/mL
same,MBC/MIC Ratio,[5],2
same,MBC,[6],250 µg/mL
same,MIC,[6],250 µg/mL
same,MBC/MIC Ratio,[6],1
same,MBC,[7],250 µg/mL
same,MIC,[7],250 µg/mL
same,MBC/MIC Ratio,[7],1
same,MFC,[8],>1000 µg/mL
same,MIC,[8],250 µg/mL
same,MIC,[9],>1000 µg/mL
same,MIC,[10],>1000 µg/mL
same,MIC,[11],>1000 µg/mL
same,MFC,[12],>1000 µg/mL
same,MIC,[12],250 µg/mL
same,MIC,Candida auris CDC B11903,>1000 µg/mL
same,MIC,[13],>1000 µg/mL
Cc1ccccc1NC(=S)NNC(=O)c1nc([N+](=O)[O-])cn1C [Compound 15],MBC,[1],>1000 µg/mL
same,MIC,[1],500 µg/mL
same,MBC,[2],>1000 µg/mL
same,MIC,[2],250 µg/mL
same,MBC,[3],>1000 µg/mL
same,MIC,[3],250 µg/mL
same,MBC,[4],500 µg/mL
same,MIC,[4],500 µg/mL
same,MBC/MIC Ratio,[4],1
same,MBC,[5],500 µg/mL
same,MIC,[5],500 µg/mL
same,MBC/MIC Ratio,[5],1
same,MBC,[6],1000 µg/mL
same,MIC,[6],1000 µg/mL
same,MBC/MIC Ratio,[6],1
same,MBC,[7],500 µg/mL
same,MIC,[7],500 µg/mL
same,MBC/MIC Ratio,[7],1
same,MIC,[8],>1000 µg/mL
same,MIC,[9],>1000 µg/mL
same,MIC,[10],>1000 µg/mL
same,MIC,[11],>1000 µg/mL
same,MFC,[12],>1000 µg/mL
same,MIC,[12],500 µg/mL
same,MIC,Candida auris CDC B11903,>1000 µg/mL
same,MIC,[13],>1000 µg/mL
"Cc1cccc(NC(=S)NNC(=O)c2nc([N+](=O)[O-])cn2C)c1 [Compound 16, 1-[(1-methyl-4-nitroimidazol-2-yl)carbonyl]-4-(3-methylphenyl)-thiosemicarbazide]",MBC,[1]; [14],> 1000 µg/mL
same,MIC,[1]; [15],250 µg/mL
same,MBC,[2]; [16],> 1000 µg/mL
same,MIC,[2]; [17],62.5 µg/mL
same,MBC,[3]; [18],> 1000 µg/mL
same,MIC,[3]; [19],125 µg/mL
same,MBC/MIC Ratio,[4],1
same,MBC,[4]; [20],500 µg/mL
same,MIC,[4]; [21],500 µg/mL
same,MBC,[5]; [22],> 1000 µg/mL
same,MIC,[5]; [23],500 µg/mL
same,MBC,[6]; [24],500 µg/mL
same,MIC,[6]; [25],500 µg/mL
same,MBC/MIC Ratio,[6],1
same,MBC,[7]; [26],> 1000 µg/mL
same,MIC,[7]; [27],250 µg/mL
same,MFC,"[8]; Lodderomyces parapsilosis, ATCC22019, read-out: MFC",> 1000 µg/mL
same,MIC,[8]; [28],500 µg/mL
same,MIC,[9]; [29],> 1000 µg/mL
same,MIC,[10]; [30],> 1000 µg/mL
same,MIC,[11]; [31],> 1000 µg/mL
same,MIC,[12]; [32],> 1000 µg/mL
same,MIC,Candida auris CDC B11903; [33],> 1000 µg/mL
same,MIC,[13]; [34],> 1000 µg/mL
"Cc1ccc(NC(=S)NNC(=O)c2nc([N+](=O)[O-])cn2C)cc1 [Compound 17, 1-[(1-methyl-4-nitroimidazol-2-yl)carbonyl]-4-(4-methylphenyl)thiosemicarbazide]",MBC,[1]; [14],> 1000 µg/mL
same,MIC,[1]; [15],125 µg/mL
same,MBC/MIC Ratio,"[2]; <4 bactericidal, ≥4 bacteriostatic",1
same,MBC,[2]; [16],125 µg/mL
same,MIC,[2]; [17],125 µg/mL
same,MBC,[3]; [18],> 1000 µg/mL
same,MIC,[3]; [19],125 µg/mL
same,MBC,[4]; [20],> 1000 µg/mL
same,MIC,[4]; [21],500 µg/mL
same,MBC,[5]; [22],> 1000 µg/mL
same,MIC,[5]; [23],500 µg/mL
same,MBC,[6]; [24],> 1000 µg/mL
same,MIC,[6]; [25],500 µg/mL
same,MBC,[7]; [26],> 1000 µg/mL
same,MIC,[7]; [27],62.5 µg/mL
same,MIC,[8]; [28],> 1000 µg/mL
same,MIC,[9]; [29],> 1000 µg/mL
same,MIC,[10]; [30],> 1000 µg/mL
same,MIC,[11]; [31],> 1000 µg/mL
same,MFC,"[12]; Candida tropicalis, ATCC1369, read-out: MFC",> 1000 µg/mL
same,MIC,[12]; [32],250 µg/mL
same,MIC,Candida auris CDC B11903; [33],> 1000 µg/mL
same,MIC,[13]; [34],> 1000 µg/mL
"Cn1cc([N+](=O)[O-])nc1C(=O)NN=Cc1ccccc1 [Compound 19, 1-methyl-4-nitro-N’-(phenylmethylidene)-1H-imidazole-2-carbohydrazide]",melting point,,280 to 284 °C
"Cn1cc([N+](=O)[O-])nc1C(=O)NN=Cc1ccccc1Cl [Compound 20, N’-[(2-chlorophenyl)methylidene]-1-methyl-4-nitro-1H-imidazole-2-carbohydrazide]",melting point,,234 to 236 °C
"Cn1cc([N+](=O)[O-])nc1C(=O)NN=Cc1cccc(Cl)c1 [Compound 21, N’-[(3-chlorophenyl)methylidene]-1-methyl-4-nitro-1H-imidazole-2-carbohydrazide]",melting point,,276 to 278 °C
"Cn1cc([N+](=O)[O-])nc1C(=O)NN=Cc1ccccc1F [Compound 22, N’-[(2-fluorophenyl)methylidene]-1-methyl-4-nitro-1H-imidazole-2-carbohydrazide]",melting point,,214 to 217 °C
"COc1ccccc1C=NNC(=O)c1nc([N+](=O)[O-])cn1C [Compound 23, N’-[(2-methoxyphenyl)methylidene]-1-methyl-4-nitro-1H-imidazole-2-carbohydrazide]",melting point,,205 to 208 °C
"COc1cccc(C=NNC(=O)c2nc([N+](=O)[O-])cn2C)c1 [Compound 24, N’-[(3-methoxyphenyl)methylidene]-1-methyl-4-nitro-1H-imidazole-2-carbohydrazide]",melting point,,208 to 210 °C
"COc1ccc(C=NNC(=O)c2nc([N+](=O)[O-])cn2C)cc1 [Compound 25, N’-[(4-methoxyphenyl)methylidene]-1-methyl-4-nitro-1H-imidazole-2-carbohydrazide]",melting point,,224 to 226 °C
"Cn1cc([N+](=O)[O-])nc1C(=O)NN=Cc1ccc(C(F)(F)F)cc1 [Compound 26, 1-methyl-4-nitro-N’-[(4-trifluoromethylphenyl)methylidene]-1H-imidazole-2-carbohydrazide]",melting point,,208 to 210 °C
"Cn1cc([N+](=O)[O-])nc1C(=O)NN=Cc1cccc(O)c1 [Compound 27, N’-[(3-hydroxyphenyl)methylidene]-1-methyl-4-nitro-1H-imidazole-2-carbohydrazide]",melting point,,208 to 210 °C
